Test results taken from patent US20030138432A1, “Selective cellular targeting: multifunctional delivery vehicles, multifunctional prodrugs, use as antineoplastic drugs” (Drug Innovation & Design, Inc., priority 1999, published 2003).
Read-outs that look alike come from different tables or passages of the source.

Key:
PKA = PKA (Homo sapiens, UniProt P17612); conditions: cited from earlier work
Protein Kinase C (PKC) = conditions: cited from earlier work
[1] = test system: PSMA positive human prostate tumor cells; assay: In vitro growth of PSMA positive prostate tumor cells with a PSMA inhibitor; assay type: cell-based; conditions: in the presence of high concentrations of the inhibitor
PSMA = target: T1, PSMA (Homo sapiens, UniProt Q04609); assay: Inhibition of PSMA, radiolabelled N-acetylaspartylglutamate as substrate, generation of glutamic acid monitored; assay type: biochemical
T1 construct: PSMA was prepared from LNCaP prostatic carcinoma cells as described by Pinto J. T. et al; endogenous in cells; host or cells: LNCaP prostatic carcinoma cells
T1 sequence (Q04609 whole entry): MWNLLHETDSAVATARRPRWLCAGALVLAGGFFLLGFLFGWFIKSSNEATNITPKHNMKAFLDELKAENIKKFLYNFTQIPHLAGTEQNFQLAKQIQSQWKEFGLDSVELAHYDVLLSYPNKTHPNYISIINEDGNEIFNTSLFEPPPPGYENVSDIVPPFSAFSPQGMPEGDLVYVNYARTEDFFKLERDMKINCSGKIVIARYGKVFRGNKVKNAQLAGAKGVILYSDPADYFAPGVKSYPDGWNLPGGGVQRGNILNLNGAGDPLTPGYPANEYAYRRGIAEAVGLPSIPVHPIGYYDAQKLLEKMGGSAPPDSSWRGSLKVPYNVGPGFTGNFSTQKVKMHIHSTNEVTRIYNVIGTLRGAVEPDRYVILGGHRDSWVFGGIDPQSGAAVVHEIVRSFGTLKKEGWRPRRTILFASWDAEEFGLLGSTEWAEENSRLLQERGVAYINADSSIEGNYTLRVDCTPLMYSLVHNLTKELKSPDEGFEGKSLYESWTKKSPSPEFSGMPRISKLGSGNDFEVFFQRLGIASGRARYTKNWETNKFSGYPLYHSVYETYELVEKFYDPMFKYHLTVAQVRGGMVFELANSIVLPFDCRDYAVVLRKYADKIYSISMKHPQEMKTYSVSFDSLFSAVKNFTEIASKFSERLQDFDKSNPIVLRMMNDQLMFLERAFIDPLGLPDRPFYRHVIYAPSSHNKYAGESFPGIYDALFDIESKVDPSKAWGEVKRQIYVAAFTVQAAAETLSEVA
Method: PSMA was prepared from LNCaP prostatic carcinoma cells as described by Pinto J. T. et al., Clinical Cancer Res. Vol.2 p.1445 (1996). The enzyme was assayed employing radiolabelled N-acetylaspartylglutamate as a substrate and monitoring the generation of glutamic acid in the presence of varying concentrations of Compound 1 or 1.1. […] Compound 1.1 inhibited the enzyme 50% at 3.4 nM.

[2] = read-out: IC50 (cytotoxin); cited from earlier work
[3] = target: dihydroorotic acid dehydrogenase (Homo sapiens, UniProt Q02127); conditions: cited from earlier work
Chain of dihydroorotic acid dehydrogenase (Q02127 whole entry): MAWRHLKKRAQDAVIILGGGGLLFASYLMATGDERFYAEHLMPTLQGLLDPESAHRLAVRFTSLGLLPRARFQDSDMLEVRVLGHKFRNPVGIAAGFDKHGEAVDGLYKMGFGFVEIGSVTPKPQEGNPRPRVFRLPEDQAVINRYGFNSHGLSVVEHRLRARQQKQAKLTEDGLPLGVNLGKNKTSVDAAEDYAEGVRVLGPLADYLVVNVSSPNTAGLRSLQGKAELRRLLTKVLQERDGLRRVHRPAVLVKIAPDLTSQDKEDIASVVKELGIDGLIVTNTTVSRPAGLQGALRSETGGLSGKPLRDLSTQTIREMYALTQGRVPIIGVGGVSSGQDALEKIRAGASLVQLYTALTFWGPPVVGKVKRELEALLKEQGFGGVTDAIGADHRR

IMP dehydrogenase = conditions: cited from earlier work

In the case of 10″-deoxybalanol, the Ki (PKA) is given as 4 nM and the Ki (Protein Kinase C (PKC)) is given as 640 nM.

In the case of `O=C(O)CCC(CP(=O)(O)O)C(=O)O` (stereo not shown) [2-(phosphonomethyl)-pentanedioic acid], the “growth of tumor cells in vitro” value [1] is reported as “readily grow”.

Work on `O=C(O)CCC(CP(=O)(O)CCC(=O)NC(CCCCNC(=S)Nc1ccc(-c2c3ccc(=O)cc-3oc3cc(O)ccc23)c(C(=O)O)c1)C(=O)NCCc1ccc(O)cc1)C(=O)O` (stereo not shown) [Compound 1.1] yielded an IC50 (PSMA) of 3.4 nM and a Ki (PSMA) of 3.4 nM.

Molecule `O=C(O)CCC(OP(=O)(O)OCCCOCCNC(=O)CCCCCNS(=O)(=O)c1ccc(C2=c3cc4c5c(c3Oc3c2cc2c6c3CCCN6CCC2)CCC[N+]=5CCC4)c(S(=O)(=O)[O-])c1)C(=O)O` (stereo not shown) [Compound 1] has an IC50 (PSMA; PSMA prepared from LNCaP prostatic carcinoma cells, radiolabelled N-acetylaspartylglutamate substrate, read-out: concentration that inhibited the enzyme 50%) of 20 nM and a Ki (PSMA; PSMA prepared from LNCaP prostatic carcinoma cells, read-out: Ki for inhibition of PSMA) of 20 nM.

In the case of `COc1c(C)cc2c(c1O)C1C3Cc4c(OC(C)=O)c(C)c5c(c4C(CN4C(=O)c6ccccc6C4=O)N3C(C#N)C(C2)N1C)OCO5` (stereo not shown) [Phthalascidin], the IC50 [2] is given as 0.1 to 1 nM.

For `Cc1c(-c2ccc(-c3ccccc3F)cc2)nc2ccc(F)cc2c1C(=O)O` [brequinar], the “level at which dihydroorotic acid dehydrogenase is inhibited” value [3] is given as “nonamolar levels”.

In the case of `COc1c(C)c2c(c(O)c1C/C=C(\C)CCC(=O)O)C(=O)OC2` [mycophenolic acid], the “level at which IMP dehydrogenase is inhibited” value (IMP dehydrogenase) is listed as “nanomolar levels”.
